pIC50: −log10 of the molar value. Calls of active or inactive are those of the source.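 How the source made its calls: active means in confirmatory dose-response testing, peak deubiquitinase inhibition of 30% or more; inactive means the rest.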 Some results are limits rather than exact numbers.

By pIC50 is commonly meant the negative decadic logarithm of the IC50, by convention in mol/L. In general, IC50 refers to the concentration needed to halve the response being measured.

Sequence of Ubiquitin carboxyl-terminal hydrolase 28 (Homo sapiens) (Q96RU2 whole entry, looked up): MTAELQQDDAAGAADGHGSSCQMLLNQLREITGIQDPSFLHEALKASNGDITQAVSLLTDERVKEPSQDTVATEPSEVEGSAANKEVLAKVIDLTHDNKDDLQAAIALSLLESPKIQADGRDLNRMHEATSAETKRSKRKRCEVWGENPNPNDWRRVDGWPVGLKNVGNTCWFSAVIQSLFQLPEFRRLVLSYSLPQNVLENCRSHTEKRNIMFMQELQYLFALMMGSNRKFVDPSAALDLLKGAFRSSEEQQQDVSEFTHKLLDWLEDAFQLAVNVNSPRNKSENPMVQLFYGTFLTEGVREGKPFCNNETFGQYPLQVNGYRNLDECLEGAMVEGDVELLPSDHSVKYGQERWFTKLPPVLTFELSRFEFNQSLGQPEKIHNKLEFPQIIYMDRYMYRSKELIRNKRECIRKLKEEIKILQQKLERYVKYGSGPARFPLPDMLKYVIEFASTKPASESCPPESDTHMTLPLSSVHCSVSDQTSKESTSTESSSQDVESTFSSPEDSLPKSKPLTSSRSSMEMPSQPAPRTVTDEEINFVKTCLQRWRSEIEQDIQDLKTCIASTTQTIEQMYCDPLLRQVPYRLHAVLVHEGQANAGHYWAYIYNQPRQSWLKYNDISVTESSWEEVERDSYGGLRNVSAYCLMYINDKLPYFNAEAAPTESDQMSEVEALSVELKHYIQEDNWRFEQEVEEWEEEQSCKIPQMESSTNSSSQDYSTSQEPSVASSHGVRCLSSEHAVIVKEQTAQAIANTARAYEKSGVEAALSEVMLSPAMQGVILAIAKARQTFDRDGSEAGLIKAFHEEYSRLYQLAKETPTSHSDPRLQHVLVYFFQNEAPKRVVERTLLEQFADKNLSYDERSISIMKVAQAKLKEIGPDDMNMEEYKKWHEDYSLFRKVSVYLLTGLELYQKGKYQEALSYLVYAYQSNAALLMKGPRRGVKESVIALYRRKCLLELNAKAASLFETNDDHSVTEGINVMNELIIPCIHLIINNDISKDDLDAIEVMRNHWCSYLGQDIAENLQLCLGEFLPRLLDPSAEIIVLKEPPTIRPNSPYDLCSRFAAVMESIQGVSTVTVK

The experiment concerns the target Ubiquitin carboxyl-terminal hydrolase 28 (Homo sapiens) (UniProt Q96RU2). Description: Ubiquitin-specific peptidase 28 DUB inhibitors, biochemical concentration-dependence assay, validation of primary screening hits (AID 1645866). Particulars: purified USP28, ubiquitin-rhodamine fluorescence, 30 min.
Regarding `O=C(CSc1nc2cc(S(=O)(=O)Nc3ccccc3Cl)ccc2o1)Nc1ccc(N2CCOCC2)cc1`, the pIC50 was 4.46.

For the molecule `Cc1nc(C(=O)N[C@@H](C)C(=O)NCc2ccc3c(c2)OCO3)cc2c1[nH]c1ccccc12`, the pIC50 was 4.65.

As to `COc1cc(NC(=O)Cc2ccccc2)ccc1NC(=O)c1cc2ccccc2o1`, the negative-log IC50 (pIC50) was 5.52.

For `CC(C)NC(=O)CN1C(=O)CC(C)Sc2ccc(S(=O)(=O)N3CCCCC3)cc21` (stereo not given), the pIC50 was 4.38.

In the case of `O=C(COc1nc2ccccc2nc1N1CCOCC1)NC(c1ccccc1)c1ccccc1`, the IC50 was > 50 µM (inactive).

For `Cc1nn(CC(=O)NCc2ccccc2F)c2ccccc12`, the IC50 was > 50 µM (inactive).

Take `CC(NC(=O)c1ccccc1)c1nc2ccccc2n1CC(=O)Nc1ccc2c(c1)OCO2` (stereo not given): the negative logarithm of the IC50 (pIC50) is 5.68.

In the case of `COc1ccc(NC(=O)CN2C(=O)c3ccccc3Sc3ccc(C(=O)N4CCCC4)cc32)cc1OC`, the pIC50 was 4.47.

For the molecule `O=C(Nc1cc(F)c2nc(N3CCOCC3)ccc2c1)c1ccc(Br)o1`, the pIC50 is 4.43.

Regarding `Fc1ccc(Cn2ccc(-c3cnc(-c4ccccc4)s3)n2)cc1`, the pIC50 was 4.56.

Take `Cc1ccc2[nH]c(=O)c(-c3nc4ccc(C)cn4c3NCc3ccc(F)cc3)cc2c1`: the pIC50 was 5.72.

On to `O=C(Cn1cnc2c(oc3ccccc32)c1=O)NCc1ccccc1Cl`, for which the pIC50 is 4.65.

`O=c1sc2ccccc2c(=O)n1Cc1cccc(C(F)(F)F)c1`: the pIC50 is 5.96.

As for `O=C(Cn1nc2ccc(C(=O)NCc3ccccc3)cn2c1=O)Nc1ccc2c(c1)OCO2`, the pIC50 was 4.47.

For `O=c1c2ccccc2ncn1C1CCN(S(=O)(=O)c2ccccc2F)CC1`, the negative logarithm of the IC50 (pIC50) was 4.51.

As to `C=C1CCC2[C@](C)(CCC[C@]2(C)C(=O)OC)[C@H]1CCc1ccoc1CNC(C)C` (stereo not given in full), the IC50 is > 50 µM (inactive).

Consider `O=C(Nc1ccc2c(c1)OCCO2)c1cccc2nc3ccccc3nc12`, for which the pIC50 was 5.70.

On to `CSc1nc2ncc3c(=O)n(CCc4ccccc4)ccc3n2n1`, for which the IC50 was > 50 µM (inactive).

On to `COc1ccc(C(C(=O)NC2CCCCC2)N(C(=O)CCCC(=O)Nc2ccccn2)c2ccccc2C)cc1` (stereo not given), for which the pIC50 is 4.77.

`COc1ccc(C)cc1NC(=O)COc1ccc2c(c1)OCO2`: the pIC50 was 4.30.

Take `Cn1c(CCN2CCCC2)nc2cc(NS(=O)(=O)c3ccccc3)ccc21`: the IC50 was > 50 µM (inactive).

Turning to `COC(=O)c1ccc(Cn2cnc3ccc(Br)cc3c2=O)o1`, the pIC50 is 5.68.

As to `COc1ccc(C2CC(c3ccc(C)cc3)N(C(=O)C3CC3)c3ncnn32)cc1` (stereo not given), the IC50 is > 50 µM (inactive).

Take `CCc1cc2c(=O)[nH]c(Cc3ccc(OC)cc3)nc2s1`: the pIC50 is 4.70.

With `CC(=O)c1cccc(NC(=O)c2ccc3[nH]c4c(c3c2)CC(C)CC4)c1` (stereo not given), the IC50 was > 50 µM (inactive).

As to `CC(C(=O)Nc1ccccc1)n1cnc2nc(N3CCCCC3)ncc2c1=O` (stereo not given), the IC50 is > 50 µM (inactive).

`COc1cccc(CNC(=O)C2=Cc3cccc(OC)c3OC2)c1`: the negative-log IC50 (pIC50) is 5.06.

Regarding `Cc1ccc(-c2ccc(N3CCOCC3)nn2)cc1S(=O)(=O)N1CCOCC1`, the IC50 is > 50 µM (inactive).

Regarding `CCc1cc2cc3c(cc2nc1SCC(=O)Nc1cccc(C(C)=O)c1)OCO3`, the pIC50 was 5.59.

Turning to `COc1cc(OC)c(NC(=O)Cn2c(=O)n(Cc3ccccc3Cl)c(=O)c3cc(OC)c(OC)cc32)cc1Cl`, the pIC50 was 5.48.

Take `COc1cnc(-c2ccccn2)nc1Sc1ccccc1Cl`: the pIC50 is 4.96.

Consider `CC(=O)c1ccc(NC(=O)C[n+]2cc(-c3ccc(Cl)cc3)n3c2CCC3)cc1`, for which the negative logarithm of the IC50 (pIC50) is 4.50.

Regarding `CCC(=O)Nc1ccc(-c2nc(Cn3cc(C)cn3)c(C)o2)cc1`, the negative logarithm of the IC50 (pIC50) is 5.43.

With `O=C(COc1ccc(Cl)cc1Cl)Nc1ccc2[nH]c(=O)[nH]c2c1`, the pIC50 was 5.26.

With `O=C1N[C@@H](Cc2ccccc2)C(=O)N2[C@H]3Nc4ccccc4[C@@]3([C@]34C[C@H]5C(=O)N[C@@H](Cc6ccccc6)C(=O)N5[C@H]3Nc3ccccc34)C[C@@H]12`, the pIC50 is 4.53.

For `O=C(c1cc2ccccc2o1)N1CC=C(c2ccccc2)CC1`, the IC50 was > 50 µM (inactive).

Take `Cn1cc(-c2noc(Cc3cccc(C(F)(F)F)c3)n2)ccc1=O`: the pIC50 is 4.91.

Consider `O=C(CC(C(=O)Nc1ccc2c(c1)OCO2)C(=O)c1ccccc1)Nc1ccc(Cl)cc1F` (stereo not given), for which the pIC50 was 5.01.

As for `CC(C)C1Cc2c(sc3nc(SCC(=O)Nc4cccc5ccccc45)nc(N)c23)CO1` (stereo not given), the pIC50 is 4.41.

As for `Cc1ccc(C(=O)NCc2ccc(C(=O)Nc3ccc(C)c(C)c3)o2)cc1`, the pIC50 was 4.55.

For the molecule `COc1ccc(-c2cc3c(=O)n(CC(=O)Nc4ccccc4Cl)ccn3n2)cc1`, the pIC50 was 5.00.

Regarding `CCc1nnc(NC(=O)c2nnn(-c3ccccc3Cl)c2C)s1`, the pIC50 is 4.54.

For `Cn1c2ccccc2c(=O)c2c(=O)n(Cc3ccccc3)c(-c3ccccc3F)nc21`, the pIC50 is 6.97.

Turning to `COc1ccc(CCn2cnc3c4ccccc4n(C)c3c2=O)cc1OC`, the pIC50 was 5.07.

As for `COc1cccc2cc(C(=O)Nc3ccc4c(c3)OCCO4)oc12`, the pIC50 is 5.01.

Consider `O=C(Nc1ccccc1)c1cn(-c2cc(N3CCCC3)ncn2)cn1`, for which the IC50 is > 50 µM (inactive).

As for `CCn1c(=N)n(CCOc2ccc(F)cc2)c2ccccc21`, the pIC50 is 6.23.

Turning to `CC1CC[C@@]2(NC1)O[C@H]1C[C@H]3[C@@H]4CC=C5C[C@@H](O)CC[C@]5(C)[C@H]4CC[C@]3(C)[C@H]1[C@@H]2C` (stereo not given in full), the pIC50 is 4.46.

`O=C(CCc1nnc2n(Cc3ccccc3)c(=O)c3ccccc3n12)N1CCN(c2ccccn2)CC1`: the pIC50 is 5.53.

`O=C(Cc1cc(-c2ccccc2)on1)NCc1c(F)cccc1F`: the pIC50 was 4.54.

Regarding `COc1ccccc1-c1nc2c3c(C)c(C)n(-c4ccc(Br)cn4)c3ncn2n1`, the pIC50 was 5.68.

For `O=C(Nc1cc(Cl)cc(Cl)c1)c1csnn1`, the pIC50 is 4.80.

Take `CCCN1C=NS(=O)(=O)c2cc(C(=O)Nc3ccc(OC)c(Cl)c3)ccc21`: the pIC50 was 4.45.

Take `CCCC(=O)c1c[nH]c(C(=O)NCc2ccc(F)cc2)c1`: the pIC50 was 4.73.

As for `c1ccc(-n2nnc(-c3noc(-c4cccnc4)n3)c2-c2ccncc2)cc1`, the negative-log IC50 (pIC50) is 4.68.

Take `O=C(c1ccco1)N1CCC2(CC1)CC1(CO2)Nc2ccccc2-n2cccc21` (stereo not given): the pIC50 was 4.46.

For the molecule `COc1ccc(C(=O)CCN2CCOCC2)cc1[N+](=O)[O-]`, the IC50 is > 50 µM (inactive).

As for `CCCc1cc(=O)oc2cc(OCC(=O)NCc3ccc(OC)cc3)ccc12`, the pIC50 is 4.78.

As for `COc1ccc(NC(=O)Nc2cccc(-c3nnc(-c4ccccc4)o3)c2)cc1OC`, the negative-log IC50 (pIC50) is 4.66.

Turning to `CC(C)c1nc2sc3c(N(CCO)CCO)ncnc3c2c2c1COC(C)(C)C2`, the IC50 is > 50 µM (inactive).

On to `COc1ccc(-n2nnc(C(=O)Nc3ccccc3)c2N)cc1`, for which the IC50 is > 50 µM (inactive).

Take `Cc1ccc(-n2c(=O)[nH]c3c(C(N)=O)nc(-c4cccnc4)nc32)cc1`: the pIC50 was 5.16.

For the molecule `Cn1nc(-c2nc(-c3ccccc3)no2)c2c1CCN(C(=O)C1CC1)C2`, the IC50 was > 50 µM (inactive).

For the molecule `CCOC(=O)c1cn(C2CC2)c2cc(N3CCNCC3)c([N+](=O)[O-])cc2c1=O`, the IC50 is > 50 µM (inactive).

Regarding `CCn1cc2c(n1)c(=O)n(Cc1ccc(C)cc1)c(=O)n2CC(=O)Nc1ccc(F)cc1`, the pIC50 is 4.96.

Consider `O=C(/C=C/c1cnc2ccccc2c1)NCc1ccccc1`, for which the pIC50 was 4.65.

`CC(C)CC1NC(=O)C2CCCN2C1=O` (stereo not given): the pIC50 is 4.43.

With `Cc1ccc(C(C)C)cc1OCCOCCN1CCNCC1`, the pIC50 was 4.70.

Regarding `c1ccc2c(-c3nc(C4CC4)no3)nnc(NCc3ccncc3)c2c1`, the pIC50 is 4.45.

Regarding `O=C(COc1cc([N+](=O)[O-])cc2cccnc12)NCCC1=CCCCC1`, the pIC50 is 4.54.

For the molecule `Cc1oc(C2CC2)cc1C(=O)N1CCC2(CC1)CC1(CO2)Nc2ccccc2-n2cccc21` (stereo not given), the IC50 is > 50 µM (inactive).

`CC(OC(=O)c1c2c(nc3ccccc13)CCCCC2)C(=O)Nc1ccc2ccccc2c1` (stereo not given): the negative-log IC50 (pIC50) was 5.29.

In the case of `CC(C)(C)n1ncc2c(=O)n(Cc3cccc([N+](=O)[O-])c3)cnc21`, the negative-log IC50 (pIC50) was 5.17.

With `COc1c(O)cc(CC(=O)O)c(C(C)=O)c1O`, the pIC50 is 4.98.

As for `CCc1ccccc1NC(=O)c1cc(-c2ccccn2)n[nH]1`, the pIC50 was 4.34.

For `COc1ccc(NC(=O)CNC(=O)c2ccc3nc(-n4cccc4)sc3c2)cc1`, the pIC50 is 5.51.

For `CN(C)S(=O)(=O)c1ccc(C(=O)Nc2c(C#N)oc3ccccc23)cc1`, the IC50 was > 50 µM (inactive).

Turning to `COc1ccc(NC(=O)Cn2c(CSc3ccc(C)cc3)nc3ccccc32)cc1`, the pIC50 was 4.68.

In the case of `O=C(CSc1nnc2n1CCCCC2)Nc1ccc2[nH]c(=O)[nH]c2c1`, the pIC50 was 4.46.

For the molecule `CCC1(C)Cc2c(sc3nc(SCC(=O)Nc4ccc(C(C)=O)cc4)nc(N)c23)CO1` (stereo not given), the negative logarithm of the IC50 (pIC50) was 4.75.

As to `Cc1ccccc1NC(=O)C(C)n1c(=O)cc(-c2ccccc2)c2c(C)nn(C)c21` (stereo not given), the pIC50 was 5.11.

Take `Cc1ccc2[nH]c(=O)c(CN(CC3CCCO3)S(=O)(=O)c3ccccc3)cc2c1` (stereo not given): the pIC50 is 4.61.

For the molecule `Cc1ccc(C(=O)Nc2cc3c4c(c2)CC(=O)N4CCC3)cc1`, the pIC50 was 5.08.

`COC(=O)c1ccc(NC(=O)CSc2nnc(-c3ccc(O)cc3)n2Cc2ccco2)cc1`: the pIC50 was 4.47.

In the case of `O=C(NCc1ccco1)c1ccc2c(c1)N(Cc1cccc(F)c1)C(=O)c1ccccc1S2`, the IC50 is > 50 µM (inactive).

Turning to `COc1cccc(-n2ccc(=O)c(-c3nc(-c4ccccc4Cl)no3)n2)c1`, the pIC50 is 4.56.

Regarding `Nc1c(C(=O)Nc2ccc3c(c2)OCO3)sc2nc(-c3cccnc3)ccc12`, the pIC50 is 5.70.

Take `COc1ccc2c(c1)CCc1c-2n[nH]c1C(=O)Nc1cc(C)on1`: the negative logarithm of the IC50 (pIC50) was 4.91.

Consider `CC1=C[C@H]2N(c3ccc(C)cc31)[C@H](C(=O)c1cccs1)[C@@H](C(=O)c1ccc(F)cc1)[C@]21C(=O)Nc2ccccc21`, for which the IC50 is > 50 µM (inactive).

`COc1ccc(OC)c(-c2cc(C(=O)Nc3c(C)nn(Cc4ccccc4)c3C)no2)c1`: the pIC50 was 5.74.

The values above are taken from PubChem BioAssay AID1645866 (Buhrlage Lab, Dana-Farber Cancer Institute and Novartis …, 2021).
